One assay has as its target T1, human A2A AdoR (Homo sapiens, UniProt P29274).
T1 construct: purchased PerkinElmer RBHA2AM400UA
Nature of the assay: Adenosine receptor binding assay, A2A ([3H]-CGS-21680). Particulars: membranes of HEK-293 cells expressing human A2A AdoR; read-out: hA2A IC50. As to the method:
(§1) Membranes prepared from CHO-K1 cells stably expressing Human AiAdoR (ES-010-M400UA), HEK-293 cells stably expressing human A2A AdoR (RBHA2AM400UA), HEK-293 cells stably expressing human A2B AdoR (ES-013-M400UA) and CHO-K1 cells stably expressing Human A3 AdoR (ES-012-M400UA) were purchased from PerkinElmer (Waltham, Mass., USA) and stored at −80° C. until use. Binding assays are performed using the radioligands. The final concentrations are as follows: [3H]-DPCPX (PerkinElmer, NET974001MC) at 1 nM for A1AdoR; [^3H]-CGS-21680 (PerkinElmer, NET1021250UC) at 6 nM for A2AAdoR, [3H]-DPCPX (PerkinElmer, NET974001MC) at 8 nM for A2BAdoR; [^3H]-HEMADO (ARC, Cat: ART1456) at 1 nM for A3AdoR. Testing compounds are diluted with DMSO to make 8-point 4-fold serial dilution. Nonspecific binding (Low control: LC) and total binding (High control: HC) are determined in the presence or absence of saturated cold ligand. Specific binding is calculated by subtracting nonspecific binding from total binding. All assays are performed in a final volume of 200 μl containing 1 μl of the test compound in DMSO, 100 μl of membrane preparation, and 99 μl of the radioligand in assay buffer (A1AdoR: 25 mM HEPES pH 7.4, 5 mM MgCl2, 1 mM CaCl2), 100 mM NaCl; A2AAdoR: 50 mM Tris HCl pH 7.4, 10 mM MgCl2, 1 mM EDTA; A2BAdoR: 50 mM HEPES pH 7.0, 5 mM MgCl2, 1 mM EDTA; A3AdoR: 25 HEPES pH 7.4, 10 mM MgCl2, 1 mM CaCl2), 0.5% BSA). The incubation is performed at room temperature with shaking at 300 rpm for 1 hour for A1AdoR, A2BAdoR and A3AdoR and 2 hours for A2AAdoR. After the incubation, the assay mixture is filtered through 96 GF/C filter plates (Perkin Elmer #6005174) using Perkin Elmer Filtermate Harvester, and then washed four times with ice-cold washing buffer (A1AdoR: 25 mM HEPES pH 7.4, 5 mM MgCl2, 1 mM CaCl2), 100 mM NaCl; A2AAdoR: 50 mM Tris HCl pH 7.4, 154 mM NaCl; A2BAdoR: 50 mM HEPES pH 6.5, 5 mM MgCl2, 1 mM EDTA, 0.2% BSA; A3AdoR: 50 mM Tris HCl pH 7.4). The filters are dried for 1 hour at 50° C. and [^3H] trapped on filter counted for radioactivity in Perkin Elmer Microscint 20 cocktail (#6013329) using Perkin Elmer MicroBeta2 Reader. The results are expressed as a percent inhibition of the control radioligand specific binding calculated using the following equation: % Inhibition=(1−(Assay well-Average_LC)/(Average_HC−Average_LC))×100%. Data are analyzed and IC50 is calculated using GraphPad Prism 5 and the model “log(inhibitor) vs. response—Variable slope”. The binding affinity of the compounds is determined by using the Cheng and Prusoff equation Ki=IC50/(1+[radioligand]/Kd).

The target of the next assay is T2, A1AdoR (Homo sapiens, UniProt P30542).
T2 construct: purchased PerkinElmer ES-010-M400UA
T2 sequence (P30542 1-326): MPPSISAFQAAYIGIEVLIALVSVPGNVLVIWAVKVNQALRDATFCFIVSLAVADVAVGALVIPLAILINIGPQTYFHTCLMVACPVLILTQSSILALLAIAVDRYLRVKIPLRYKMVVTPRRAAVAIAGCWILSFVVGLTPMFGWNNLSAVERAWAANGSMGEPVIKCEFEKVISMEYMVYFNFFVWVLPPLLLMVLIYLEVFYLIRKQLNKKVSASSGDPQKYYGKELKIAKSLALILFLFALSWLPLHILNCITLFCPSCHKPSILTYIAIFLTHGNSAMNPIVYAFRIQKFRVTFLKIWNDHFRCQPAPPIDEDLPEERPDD
Nature of the assay: Adenosine receptor binding assay, A1 ([3H]-DPCPX). To be noted: ratio A1 vs A2A binding. As for the experimental part: as §1

Counter-ions that a name gives are not always drawn.

T1 sequence (P29274 whole entry): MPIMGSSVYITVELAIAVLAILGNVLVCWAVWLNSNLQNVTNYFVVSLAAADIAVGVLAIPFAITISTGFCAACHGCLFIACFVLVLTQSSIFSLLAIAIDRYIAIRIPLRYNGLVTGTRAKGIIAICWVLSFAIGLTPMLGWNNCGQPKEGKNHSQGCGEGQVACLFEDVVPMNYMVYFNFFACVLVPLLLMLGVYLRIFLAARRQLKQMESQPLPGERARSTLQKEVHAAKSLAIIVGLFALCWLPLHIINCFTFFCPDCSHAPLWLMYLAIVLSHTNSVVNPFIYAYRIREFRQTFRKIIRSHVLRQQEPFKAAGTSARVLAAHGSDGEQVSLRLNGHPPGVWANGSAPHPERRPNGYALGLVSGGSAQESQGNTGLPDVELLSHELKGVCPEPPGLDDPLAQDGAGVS

Take `Cc1cc(N2CCN(CCn3c(C(N)=O)c(Cl)c4c3nc(N)n3nc(-c5ccccn5)nc43)CC2)c(F)cn1` [5-amino-9-chloro-7-(2-(4-(5-fluoro-2-methylpyridin-4-yl)piperazin-1-yl)ethyl)-2-(pyridin-2-yl)-7H-pyrrolo[3,2-e][1,2,4]triazolo[1,5-c]pyrimidine-8-carboxamide]: the IC50 – broadly, the concentration at which inhibition is half-maximal – on human A2A AdoR is at most 20 nM. For the same molecule, the “A1/A2A Selectivity” value at A1AdoR is listed as “c (greater than 0 but less than or equal to 100)”.
For `Cc1cc(N2CCN(CCn3c(C(=O)O)c(Cl)c4c3nc(N)n3nc(-c5ccccn5)nc43)CC2)c(F)cn1` [5-amino-9-chloro-7-(2-(4-(5-fluoro-2-methylpyridin-4-yl)piperazin-1-yl)ethyl)-2-(pyridin-2-yl)-7H-pyrrolo[3,2-e][1,2,4]triazolo[1,5-c]pyrimidine-8-carboxylic acid] the same measures were at most 20 nM and “a (greater than 1000)”.
For the molecule `Cc1noc2cc(F)c(N3CCCN(CCn4c(C(=O)O)c(Cl)c5c4nc(N)n4nc(-c6ccccn6)nc54)CC3)cc12` [5-amino-9-chloro-7-(2-(4-(6-fluoro-3-methylbenzo[d]isoxazol-5-yl)-1,4-diazepan-1-yl)ethyl)-2-(pyridin-2-yl)-7H-pyrrolo[3,2-e][1,2,4]triazolo[1,5-c]pyrimidine-8-carboxylic acid], on human A2A AdoR, the IC50 is above 100 nM. For the same molecule, the “A1/A2A Selectivity” value on A1AdoR is listed as “c (greater than 0 but less than or equal to 100)”.
As to `Cc1noc2cc(F)c(N3CCN(CCn4c(OC=O)c(Cl)c5c4nc(N)n4nc(-c6ccccn6)nc54)CC3)cc12` [5-amino-9-chloro-7-(2-(4-(6-fluoro-3-methylbenzo[d]isoxazol-5-yl)piperazin-1-yl)ethyl)-2-(pyridin-2-yl)-7H-pyrrolo[3,2-e][1,2,4]triazolo[1,5-c]pyrimidin-8-yl formate], the IC50 at human A2A AdoR is at most 20 nM. Besides, the “A1/A2A Selectivity” value at A1AdoR is given as “a (greater than 1000)”.
For `Cc1c(C(N)=O)n(CCN2CCN(c3ccncc3)CC2)c2nc(N)n3nc(-c4ccccn4)nc3c12` [5-amino-9-methyl-2-(pyridin-2-yl)-7-(2-(4-(pyridin-4-yl)piperazin-1-yl)ethyl)-7H-pyrrolo[3,2-e][1,2,4]triazolo[1,5-c]pyrimidine-8-carboxamide], at human A2A AdoR, the IC50 was at most 20 nM. For the same molecule, the “A1/A2A Selectivity” value on A1AdoR is given as “c (greater than 0 but less than or equal to 100)”.
On the same counts, the results for `Cc1c(C(N)=O)n(CCN2CCN(c3ncccn3)CC2)c2nc(N)n3nc(-c4ccccn4)nc3c12` [5-amino-9-methyl-2-(pyridin-2-yl)-7-(2-(4-(pyrimidin-2-yl)piperazin-1-yl)ethyl)-7H-pyrrolo[3,2-e][1,2,4]triazolo[1,5-c]pyrimidine-8-carboxamide] are at most 20 nM and “b (greater than 100 but less than or equal to 1000)”.
For the molecule `Cc1c(C(=O)O)n(CCN2CCN(c3ncccn3)CC2)c2nc(N)n3nc(-c4ccccn4)nc3c12` [5-amino-9-methyl-2-(pyridin-2-yl)-7-(2-(4-(pyrimidin-2-yl)piperazin-1-yl)ethyl)-7H-pyrrolo[3,2-e][1,2,4]triazolo[1,5-c]pyrimidine-8-carboxylic acid], the IC50 on human A2A AdoR was at most 20 nM. On A1AdoR, the “A1/A2A Selectivity” value was “b (greater than 100 but less than or equal to 1000)”.
For the molecule `Cc1cn(CCN2CCCN(c3cc(-c4ncco4)ccc3F)CC2)c2nc(N)n3nc(-c4ccccn4)nc3c12` [7-(2-(4-(2-fluoro-5-(oxazol-2-yl)phenyl)-1,4-diazepan-1-yl)ethyl)-9-methyl-2-(pyridin-2-yl)-7H-pyrrolo[3,2-e][1,2,4]triazolo[1,5-c]pyrimidin-5-amine], the IC50 on human A2A AdoR is at most 20 nM. Moreover, the “A1/A2A Selectivity” value on A1AdoR was “c (greater than 0 but less than or equal to 100)”.
For the molecule `Nc1nc2c(ncn2CCN2CCN(c3cc(-c4ncco4)ccc3F)CC2)c2nc(C#CC3CC3)nn12` [8-(cyclopropylethynyl)-3-(2-(4-(2-fluoro-5-(oxazol-2-yl)phenyl)piperazin-1-yl)ethyl)-3H-[1,2,4]triazolo[5,1-i]purin-5-amine], the IC50 on human A2A AdoR is at most 20 nM. Further, the “A1/A2A Selectivity” value on A1AdoR is recorded as “b (greater than 100 but less than or equal to 1000)”.
On the same counts, the results for `Cc1cnc2c(c1)CN(CCn1nc(Cl)c3c1nc(N)n1nc(-c4ccccn4)nc31)CC2` [9-chloro-7-(2-(3-methyl-7,8-dihydro-1,6-naphthyridin-6(5H)-yl)ethyl)-2-(pyridin-2-yl)-7H-pyrazolo[4,3-e][1,2,4]triazolo[1,5-c]pyrimidin-5-amine] are at most 20 nM and “c (greater than 0 but less than or equal to 100)”.
Take `COC(=O)c1cc2c(nc(N)n3nc(-c4ccccn4)nc23)n1CCN1CCN(c2cc(-c3ncco3)ccc2F)CC1` [methyl 5-amino-7-(2-(4-(2-fluoro-5-(oxazol-2-yl)phenyl)piperazin-1-yl)ethyl)-2-(pyridin-2-yl)-7H-pyrrolo[3,2-e][1,2,4]triazolo[1,5-c]pyrimidine-8-carboxylate]: at human A2A AdoR, the IC50 is at most 20 nM. Moreover, on A1AdoR, the “A1/A2A Selectivity” value is given as “a (greater than 1000)”.
For `COC(=O)c1c(C)c2c(nc(N)n3nc(-c4ccccn4)nc23)n1CCN1CCN(c2cc(C)ncc2F)CC1` [methyl 5-amino-7-(2-(4-(5-fluoro-2-methylpyridin-4-yl)piperazin-1-yl)ethyl)-9-methyl-2-(pyridin-2-yl)-7H-pyrrolo[3,2-e][1,2,4]triazolo[1,5-c]pyrimidine-8-carboxylate] the same measures were at most 20 nM and “a (greater than 1000)”.
For `COC(=O)c1c(C)c2c(nc(N)n3nc(-c4ccccn4)nc23)n1CCN1CCCN(c2cc3c(C)noc3cc2F)CC1` [methyl 5-amino-7-(2-(4-(6-fluoro-3-methylbenzo[d]isoxazol-5-yl)-1,4-diazepan-1-yl)ethyl)-9-methyl-2-(pyridin-2-yl)-7H-pyrrolo[3,2-e][1,2,4]triazolo[1,5-c]pyrimidine-8-carboxylate], the half-maximal inhibitory concentration (IC50) on human A2A AdoR is at most 20 nM. Further, the “A1/A2A Selectivity” value on A1AdoR is on record as “b (greater than 100 but less than or equal to 1000)”.
As to `COC(=O)c1c(Cl)c2c(nc(N)n3nc(-c4ccccn4)nc23)n1CCN1CCN(c2cc(-c3ncco3)ccc2F)CC1` [methyl 5-amino-9-chloro-7-(2-(4-(2-fluoro-5-(oxazol-2-yl)phenyl)piperazin-1-yl)ethyl)-2-(pyridin-2-yl)-7H-pyrrolo[3,2-e][1,2,4]triazolo[1,5-c]pyrimidine-8-carboxylate], at human A2A AdoR, the IC50 was at most 20 nM. Also, the “A1/A2A Selectivity” value on A1AdoR was “a (greater than 1000)”.
